Experimental data as given in publication PMC11604954 (Nature Communications, 2024).

Test system: PBMCs from A*02:01 COVID-19 convalescent individuals
Format: cell-based, human

For YLQPRTFLL, the ELISpot response frequency was ~ 44% and the “ELISpot: HLA-matched individuals responding / tested” value was 11 out of 25.
